# Laboratory results from ChEMBL document CHEMBL1140378, “Fast small molecule similarity searching with multiple alignment profiles of molecules represented in one-dimension” (J Med Chem, 2005).
# Legend:
# Glucagon receptor [1] = biological target: T1, Glucagon receptor (Homo sapiens, UniProt P47871); experiment: Antagonist activity against glucagon receptor; format: functional
# [2] = biological target: Mitogen-activated protein kinase 14 (Homo sapiens, UniProt Q16539); experiment: Inhibitory activity against Mitogen-activated protein kinase 14, p38-alpha; No activity
# Chain of Mitogen-activated protein kinase 14 (Q16539 whole entry): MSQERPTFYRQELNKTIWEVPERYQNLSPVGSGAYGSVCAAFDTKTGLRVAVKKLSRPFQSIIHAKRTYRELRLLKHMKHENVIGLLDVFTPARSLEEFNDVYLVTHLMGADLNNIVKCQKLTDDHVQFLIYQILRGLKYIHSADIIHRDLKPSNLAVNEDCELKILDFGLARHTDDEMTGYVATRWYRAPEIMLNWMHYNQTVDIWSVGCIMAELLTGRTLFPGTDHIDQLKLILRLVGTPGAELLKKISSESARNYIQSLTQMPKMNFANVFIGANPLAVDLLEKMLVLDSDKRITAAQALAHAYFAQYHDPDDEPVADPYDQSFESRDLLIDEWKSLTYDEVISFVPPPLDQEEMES
# Glucagon receptor [3] = biological target: T1, Glucagon receptor; experiment: Antagonist activity against glucagon receptor; […]; format: functional
# T1 sequence (P47871 whole entry): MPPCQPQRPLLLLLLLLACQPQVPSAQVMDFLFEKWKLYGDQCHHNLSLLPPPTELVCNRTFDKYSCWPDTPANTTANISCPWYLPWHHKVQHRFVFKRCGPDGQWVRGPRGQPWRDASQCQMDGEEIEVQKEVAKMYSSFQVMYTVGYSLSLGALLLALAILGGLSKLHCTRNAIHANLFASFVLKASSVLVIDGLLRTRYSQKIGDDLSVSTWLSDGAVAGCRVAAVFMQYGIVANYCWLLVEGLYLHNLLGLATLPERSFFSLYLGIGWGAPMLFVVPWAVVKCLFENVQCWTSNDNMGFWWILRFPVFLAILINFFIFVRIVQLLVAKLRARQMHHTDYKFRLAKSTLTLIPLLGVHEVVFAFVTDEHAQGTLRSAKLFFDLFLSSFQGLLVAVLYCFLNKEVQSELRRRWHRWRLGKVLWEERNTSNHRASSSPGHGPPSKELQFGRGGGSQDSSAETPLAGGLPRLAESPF
SMILES,IC50 (Glucagon receptor [1]),IC50 [2],IC50 (Glucagon receptor [3])
CC(C)c1cc(-c2ccc(Cl)cc2)[nH]c1-c1ccncc1,32 nM,Not Active,
O=C(O)c1ccc(-c2cc(-c3ccc(F)cc3)c(-c3ccncc3)[nH]2)cc1,,,Not Active
